For 121 molecules, logP results are on record in the OPERA property sets (Mansouri et al. 2018).

In general, logP refers to a log measure of how a compound divides between an organic and an aqueous phase. A lower logP goes with lower lipophilicity.

The molecule `CN(C)c1ccc(C(=C2C=CC(=[N+](C)C)C=C2)c2ccc(N(C)C)cc2)cc1.[Cl-]` registered a logP of 0.96.
To `CC(=O)OCC1CCC(NC(=O)N(CCCl)N=O)CC1` (stereo unspecified) belongs 2.24.
With `Nc1nc(N)c2ncn(COCCO)c2n1` the figure was -1.06.
In the case of `O=NN1CCCCC1=O`, the logP is -1.05.
The molecule `FC(F)(F)C(F)(F)C(F)(F)C(F)(F)C(F)(F)F` yielded a logP of 4.4.
Regarding `O=C1NC(c2cccc3ccccc23)Nc2ccccc21` (stereo unspecified), the logP was 2.96.
In turn, `CN(C)C(=S)NCc1ccccc1` yielded a logP of 1.59.
To `c1ccc2c(c1)CNc1ccccc1C2` belongs 2.9; to `CC1=C(C(=O)O)N2C(=O)C(NC(=O)C(O)c3ccccc3)C2SC1` (stereo unspecified), 0.46; to `CN(C(=O)CCC(N)=O)c1ccc(S(=O)(=O)N(C)C)cc1`, -0.56.
With `CCCc1ccc2c(c1)C(=O)c1ccc(NC(C)=O)cc1S2(=O)=O` the figure was 3.51; with `CCCc1c(OCCCCc2nnn[nH]2)ccc(C(C)=O)c1O`, 3.82.
To `c1ccc(-c2nnco2)cc1` belongs 1.31; to `NC(=O)NN=Cc1ccccc1`, 1.27; to `C=CCN(C)N=Nc1ccc(C(N)=O)cc1`, 2.09.
`CN(C)N=CCCc1ccccc1`: the logP came to 2.05.
For the molecule `COc1ncccn1`, the lipophilicity (logP) was determined as 0.23.
On to `CC(=O)Nc1ccc(C(C)=O)cc1`, for which the lipophilicity (logP) came out at 1.24.
As for `CC(=O)OC[C@@H](OC(C)=O)[C@@H](OC(C)=O)[C@H](OC(C)=O)[C@H](C=O)OC(C)=O`, the logP was found to be 0.63.
To `CC(=O)Nc1cccc(C#N)c1` belongs 1.2.
With `CCOc1ccccc1NC(C)=O`, the log partition coefficient (logP) came to 1.49.
To `CCN(CC)c1c(C)n(C)c(=O)n(-c2ccccc2)c1=O` belongs 2.11; to `O=NN(CCCl)C(=O)NC1(C(=O)O)CCCC1`, 2.01.
Turning to `N#CCCN(CCC#N)/N=N/c1nc[nH]c1C(N)=O`, the lipophilicity (logP) was -0.76.
Turning to `COc1ccc2c(=O)c(C)c(C(C)C)oc2c1`, the logP stood at 3.39.
As for `CC1(C)N=C(N)N=C(N)N1c1cccc([N+](=O)[O-])c1`, the log partition coefficient (logP) amounted to 0.06.
In turn, `CC(=O)Nc1ccc(C(F)(F)F)cc1` displayed a logP of 2.52.
Regarding `N#CN=Nc1ccccc1`, the logP was determined as 2.3.
With `COc1ccc(-c2nc3ccncc3[nH]2)c(OCCCCl)c1` the figure was 3.53.
In turn, `OC(c1ccccc1)(c1ccccc1)c1ccccc1` showed a lipophilicity (logP) of 3.68. The logP values of the last two molecules are within 0.2 log units of each other.
With `Cc1cccc(C)c1NC(=O)c1cccc(CN2CCOCC2)c1` the figure was 2.14.
As for `CNC(=N[N+](=O)[O-])NCCSCc1nc[nH]c1C`, the logP was determined as 0.18.
To `CCCCCCCCCCCCCCCC(=O)OCC1OC(n2ccc(N)nc2=O)C(O)C1O` (stereo unspecified) belongs 5.03; to `COc1nnccc1N(C)C`, 0.9.
To `NC(=O)N=[N+]([O-])c1ccccc1` belongs 0.58; to `O=C(C=Cc1ccc2c(c1)OCO2)N1CCCCC1`, 2.82.
With `N[C@@H](CSC(c1ccccc1)(c1ccccc1)c1ccccc1)C(=O)O` the figure was 2.06; with `CC(=O)Nc1ccccc1C(C)C`, 1.71.
As to `CC(=O)Nc1ccccc1NC(C)=O`, the logP was -0.03.
As to `CN(C)CCC1CN(C)C(=S)c2cccnc2O1` (stereo unspecified), the log partition coefficient (logP) came to 1.08.
The molecule `CSc1ccc(C=NN=C(N)NO)cc1` displayed a logP of 0.32.
To `O=c1cc(-c2ccc(O)cc2)oc2ccccc12` belongs 3.2.
With `CCCCOc1ccnc(C=CC2=CC([N+](=O)[O-])O2)n1` (stereo unspecified), the logP turned out to be 2.04.
With `Cc1oc2ccccc2c(=O)c1C` the figure was 2.31.
With `CCCCCCCCCCCCN.Cl` the figure was 1.85; with `CN/C(=N\C#N)NCCSCc1csc(N=C(N)N)n1`, 0.68; with `O=CC=Cc1ccco1`, 1.15.
In the case of `O=C(Nc1ccc(Cl)c(Cl)c1)C(F)(F)F`, the logP was determined as 3.9.
In the case of `O=C(Nc1ccc(Cl)c(Cl)c1)C(F)F`, the lipophilicity (logP) turned out to be 3.18.
With `CCOC(CP(=O)(OCC)OCC)OCC`, the logP came out at 0.69.
To `CCC1(c2ccccc2)NC(=O)NC1=O` (stereo unspecified) belongs 1.53; to `CC(=O)OC1OC(C)C(OC(C)=O)C(OC(C)=O)C1NC(=O)N(CCCl)N=O` (stereo unspecified), 1.32; to `COc1cc(C=O)ccc1OCCO`, 0.58.
To `COc1ccccc1C=CC(=O)OCCOc1ccc(C=O)cc1OC` belongs 3.65; to `FC(F)(F)CN(CC(F)(F)F)c1ccccc1`, 3.69.
`NN=C(c1ccccc1)c1ccccc1` gave a logP of 2.79.
With `Cc1c(N(C)C)c(=O)n(C)c(=O)n1C` the figure was 0.99; with `O=C1c2ccccc2C(=O)C1(O)O`, 0.67; with `O=C(Nc1ccc(Cl)c(Cl)c1)C1CCCCC1`, 4.72.
To `ON=C(c1ccccc1)c1ccccc1` belongs 3.2; to `CCC1OC(=O)C(C)C(OC2CC(C)(OC)C(O)C(C)O2)C(C)C(OC2OC(C)CC(N(C)C)C2O)C(C)(O)CC(C)C(=O)C(C)C(OC(C)=O)C1C` (stereo unspecified), 3.32.
Molecule `O=C(NC(CO)C(O)c1ccc(NC(=O)C2CC2)cc1)C(Cl)Cl` (stereo unspecified) came in with a log partition coefficient (logP) of 0.75.
In the case of `Cc1c(N2CCCC2)c(=O)n(-c2ccccc2)c(=O)n1C`, the logP came to 2.26.
With `CCCC1CC(C(=O)NC(C(C)O)C2OC(SC)C(O)C(O)C2O)N(CC)C1` (stereo unspecified) the figure was 1.02.
To `CN(Cc1ccccc1)N=Nc1[nH]cnc1C(N)=O` belongs 1.54; to `CC(=O)NCCC(=O)N(C)c1ccc(S(=O)(=O)N(C)C)cc1`, -0.35; to `CC(=O)NN=CCCc1ccccc1`, 1.8.
`CC(=O)OCC1OC(NC(=O)N(CCCl)N=O)C(OC(C)=O)C(OC(C)=O)C1OC(C)=O` (stereo unspecified) registered a log partition coefficient (logP) of 1.04.
To `CC(=O)Nc1ccc(C#N)cc1` belongs 1.37; to `CCN(CC)Cc1ccc(C(=O)Nc2ccccc2)cc1`, 3.49; to `CCOC(=O)C(=Cc1ccc(OC)c(OC)c1)C(=O)OCC`, 2.89.
To `NC(=O)Nc1cccc(NC(N)=O)c1` belongs 0.58.
`C#CCCC(=O)N(C)c1ccc(S(=O)(=O)N(C)C)cc1` returned a log partition coefficient (logP) of 0.88.
Consider `CCOC(CCC#N)OCC`, for which the logP is 0.75. The logP values of the last two molecules are within 0.2 log units of each other.
The molecule `O=C(O)c1cc(=O)c2c(OCC(O)COc3cccc4oc(C(=O)O)cc(=O)c34)cccc2o1` returned a logP of 1.92.
`COc1cc(C)c2c(c1OC)-c1ccc(SC)c(=O)cc1C(NC1OCC(O)C(O)C1O)CC2` (stereo unspecified) registered a logP of 1.4.
For `CCOCCOC(=O)C(C#N)=C(CC)Nc1ccc([N+](=O)[O-])cc1`, the logP was 2.6.
With `CCCCCC1CNC(C(=O)NC(C(C)Cl)C2OC(SC)C(O)C(O)C2O)C1` (stereo unspecified) the figure was 2.74; with `COc1cc(C=NO)ccc1OCCO`, 0.82; with `CC(C)C(=O)Nc1ccc(Cl)c(Cl)c1`, 3.72.
As to `CCCCCCCCNC(N)=NNC(=O)Nc1ccc(Cl)cc1`, the log partition coefficient (logP) turned out to be 4.35.
`O=C(O)c1cc(=O)c2ccccc2o1`: the logP was 1.63.
`COc1cccc(OC)n1` displayed a lipophilicity (logP) of 2.3.
With `CC(=O)Nc1ccc2nccnc2c1` the figure was 1; with `O=S([O-])c1ccccc1.[Na+]`, -3.54.
To `COc1ccc(-c2nc3ccccc3[nH]2)c(OC)c1` belongs 2.59.
With `CC(=O)NC1CCSC1=O` (stereo unspecified) the figure was -0.35; with `O=c1cn[nH]c(=O)[nH]1`, -0.59; with `CC(=O)Nc1ccc2oc(C)c(C)c(=O)c2c1`, 1.79.
Take `CC(O)COc1cccc2oc(C(=O)O)cc(=O)c12` (stereo unspecified): the logP is 1.32.
With `CNC(=O)Oc1cccc(Cl)c1Cl` the figure was 2.48; with `Cc1ccc(Cc2c[nH]c(NCCCCc3ccc(Br)cc3C)nc2=O)cn1`, 3.61; with `COc1cc(C=O)ccc1OCCOC(=O)c1ccccc1Cl`, 3.21.
In the case of `CSc1ccc(NC(C)=O)cc1`, the logP came out at 2.03.
Molecule `O=C1/C(=C2\Nc3ccccc3C2=O)Nc2ccccc21` came in with a logP of 3.72.
With `CCCCC1OC(=O)c2cc(N(CCO)CCO)ccc21` (stereo unspecified) the figure was 1.34; with `CC1CCCN(N=O)C1=O` (stereo unspecified), -0.66; with `C=CCn1c(C)c(N(C)C)c(=O)n(-c2ccccc2)c1=O`, 1.44.
`COc1cc(S(C)=O)ccc1-c1cn2ccncc2n1` (stereo unspecified): the log partition coefficient (logP) worked out at 1.11.
With `CC(=O)N(CC(=O)Nc1ccccc1)c1ccccc1` the figure was 2.01.
To `CN(C)N=Nc1cn(C2OC(CO)C(O)C2O)c(=O)[nH]c1=O` (stereo unspecified) belongs -1.82; to `N=c1ccn2c(n1)O[C@H]1[C@H](O)[C@@H](CO)O[C@H]12`, -2.37; to `CC1(O)OC(=O)c2ccccc21` (stereo unspecified), 0.81.
With `CC(C)(C)[N+]([O-])=NC#N` the figure was 1.4; with `S=c1cc[nH]cc1`, 0.2.
On to `CCCOCCC(=O)N(C)c1ccc(S(=O)(=O)N(C)C)cc1`, for which the logP was 1.26.
`COCCN(N=Nc1[nH]cnc1C(N)=O)C(C)(C)C` displayed a logP of 1.14.
To `O=C(Cc1ccccc1)Nc1ccc(Cl)c(Cl)c1` belongs 4.47; to `CSc1nccc(=O)[nH]1`, 0.22.
As to `CSc1ncnc2c1ccn2C1OC(CO)C(O)C1O` (stereo unspecified), the lipophilicity (logP) turned out to be 0.09.
The molecule `CCN(CC)c1c(C)n(-c2ccccc2)c(=O)n(C)c1=O` returned a log partition coefficient (logP) of 2.19.
With `CC(=O)Nc1ccc(S(C)(=O)=O)cc1` the figure was 0.58.
Regarding `c1cc2n(n1)CCN2`, the logP is -0.25.
`FC(F)(F)CN(CC(F)(F)F)c1ccc(Br)cc1` displayed a logP of 4.7.
`CCC(=O)OCC(=O)C1(OC(=O)CC)C(C)CC2C3CC(F)C4=CC(=O)C(Cl)=CC4(C)C3(F)C(O)CC21C` (stereo unspecified) yielded a logP of 4.22.
To `COC(=O)CCC(=O)N(C)c1ccc(S(=O)(=O)N(C)C)cc1` belongs 0.43; to `COc1cccc2c1C(=O)c1c(O)c3c(c(O)c1C2=O)CC(O)(C(=O)CO)CC3O` (stereo unspecified), 2.74.
In turn, `CNC(=S)NCC(F)(F)C(F)(F)C(F)(F)F` returned a log partition coefficient (logP) of 1.99.
In turn, `CC(=O)Nc1ccc(C(C)(C)C)cc1` showed a lipophilicity (logP) of 3.05.
Regarding `NC1=NC(C(F)(F)F)(C(F)(F)F)NC1(C(F)(F)F)C(F)(F)F`, the logP was determined as 3.35.
For the molecule `CCN(CC)Cc1ccc(C(=O)Nc2c(C)cccc2C)cc1`, the lipophilicity (logP) came out at 3.49.
